Where two headings read alike, the source gives them in different places.
Assays:
[1] = tested on: Acanthamoeba castellanii trophozoites; experiment: Activity against Acanthamoeba castellanii trophozoites; assay type: cell-based
Method: Two Acanthamoeba species (Acanthamoeba castellanii—ATCC50370 and Acanthamoeba culbertsoni—ATCC30171) were bought from the American Type Culture Collection (ATCC) and one species (Acanthamoeba healyi) was donated from the Centers for Disease Control and Prevention (CDC) for our experimentations. Trophozoites were thawed and grown in 10 mL of a nutrient rich Peptose-Glucose (PG) media. The PG media composition is 83.26 mM Glucose (15 g/L), Protease Peptone (15 g/L, yeast extract is manufactured under controlled conditions to retain its vitamin content and other nutritive values such as free amino acids, no other composition information given), 2.2 mM KH2PO4 (300 mg/L), 2.97 μM Thiamine (1 mg/L), 99.86 μM L-methionine (14.9 mg/L), 4.6 μM Vitamin B12 (83.3 μl of 0.1 mg/mL stock/L) and 68 μM Biotin (83.3 μl of 0.2 mg/mL stock/L). […] One mL/L of the salt solution was added to the media stock prior to autoclaving. All reagents were purchased from Sigma Aldrich except the Glucose which was purchased from Alfa Aesar. The cell pellet was resuspended in a final volume of 10 mL of PG media, cultured in 75 cm^2 coming tissue culture flasks and incubated at 27° C. PG was supplemented with 125 μg of penicillin/streptomycin. Sub-culturing occurred twice per week to allow the continued growth and development of the Acanthamoeba trophozoites. […]

[2] = tested on: Balamuthia mandrillaris trophozoites; experiment: Activity against Balamuthia mandrillaris trophozoites; assay type: cell-based; settings: Balamuthia mandrillaris, read-out: Balamuthia mandrillaris IC50
Method: Balamuthia mandrillaris trophozoites were thawed and grown in 10 ml of BM-3 medium. […] After autoclaving, complete BM-3 media was produced by the addition of 10% fetal bovine serum and 125 μg of penicillin/streptomycin antibiotics. The table describes all of the compounds and the activity against Balamuthia trophozoites compared to the activity for select Acanthamoeba trophozoites shown in Table 5.

[3] = trophozoites, n = 2, Table 6, read-out: Acanthamoeba castellanii IC50
[4] = read-out: Acanthamoeba castellanii IC50

| Compound | IC50 [1, 3] | IC50 ([2]; trophozoites, n = 2) | IC50 [1, 4] | IC50 [2] |
| --- | --- | --- | --- | --- |
| CC(C)NC(=N)c1ccc2nc(-c3ccc(Oc4c(F)cc(-c5nc6ccc(C(=N)NC(C)C)cc6[nH]5)cc4F)c(F)c3)[nH]c2c1 [AC, 2-(3,5-Difluoro-4-(2-fluoro-4-(6-(N-isopropylcarbamimidoyl)-1H-benzo[d]imidazol-2-yl)phenoxy)phenyl)-N-isopropyl-1H-benzo[d]imidazole-6-carboximidamide] | 1030 nM | 390 nM | – | – |
| CC(C)NC(=N)c1ccc2nc(-c3ccc(Oc4ccc(-c5nc6ccc(C(=N)NC(C)C)cc6[nH]5)c(Cl)c4)c(Cl)c3)[nH]c2c1 [AD, 2-(2-Chloro-4-(2-chloro-4-(6-(N-isopropylcarbamimidoyl)-1H-benzo[d]imidazol-2-yl)phenoxy)phenyl)-N-isopropyl-1H-benzo[d]imidazole-6-carboximidamide] | 830 nM | 130 nM | – | – |
| COc1cc(Oc2ccc(-c3nc4ccc(C(=N)NC(C)C)cc4[nH]3)cc2)ccc1-c1nc2ccc(C(=N)NC(C)C)cc2[nH]1 [AI] | – | – | 2920 nM | 70 nM |
| N=C(C1=NCCCN1)c1ccc2nc(-c3ccc4nc(-c5ccccc5)[nH]c4c3)[nH]c2c1 [AL, (2′-phenyl-1H,3′H-[2,5′-bibenzo[d]imidazol]-6-yl)(1,4,5,6-tetrahydropyrimidin-2-yl)methanimine] | 2330 nM | 280 nM | – | – |
| Oc1cccc(-c2nc3ccc(-c4nc5ccc(C6=NCCCCN6)cc5[nH]4)cc3[nH]2)c1 [AO, 3-(6-(4,5,6,7-tetrahydro-1H-1,3-diazepin-2-yl)-1H,3′H-[2,5′-bibenzo[d]imidazol]-2′-yl)phenol] | 2960 nM | 250 nM | – | – |
| N=C(N)c1ccc2nc(-c3ccc4nc(-c5ccc(C(N)=O)cc5)[nH]c4c3)[nH]c2c1 [AP, 4-(6-carbamimidoyl-1H,3′H-[2,5′-bibenzo[d]imidazol]-2′-yl)benzamide] | – | – | 47600 nM | 400 nM |
| CN(C)CCOc1cccc(-c2nc3ccc(-c4nc5ccc(C(=N)N)cc5[nH]4)cc3[nH]2)c1 [AQ, 2′-(3-(2-(dimethylamino)ethoxy)phenyl)-1H,3′H-[2,5-bibenzo[d]imidazole]-6-carboximidamide] | – | – | 13200 nM | 420 nM |
| CC(C)NC(=N)c1ccc2nc(-c3ccc(CCc4ccc(-c5nc6ccc(C(=N)NC(C)C)cc6[nH]5)cc4)cc3)[nH]c2c1 [BC] | > 67800 nM | 250 nM | – | – |
| N=C(c1ccc2nc(-c3ccc(Oc4ccc(-c5nc6ccc(C(=N)N7CCCCCC7)cc6[nH]5)cc4)cc3)[nH]c2c1)N1CCCCCC1 [BD] | 5710 nM | 350 nM | – | – |
| CC(C)NC(=N)c1ccc2nc(-c3ccc(N(c4ccccc4)c4ccc(-c5nc6ccc(C(=N)NC(C)C)cc6[nH]5)cc4)cc3)[nH]c2c1 [BG] | 3100 nM | 470 nM | – | – |
| COc1cc(-c2nc3ccc(C(=N)NC(C)C)cc3[nH]2)ccc1Oc1c(F)cc(-c2nc3ccc(C(=N)NC(C)C)cc3[nH]2)cc1F [Compound AB, 2-(3,5-Difluoro-4-(4-(6-(N-isopropylcarbamimidoyl)-1H-benzo[d]imidazol-2-yl)-2-methoxyphenoxy)phenyl)-N-isopropyl-1H-benzo[d]imidazole-6-carboximidamide] | 1440 nM | 260 nM | – | – |
| CC(C)NC(=N)c1ccc2nc(-c3ccc(Oc4ccc(-c5nc6ccc(C(=N)NC(C)C)cc6[nH]5)c(C(F)(F)F)c4)cc3)[nH]c2c1 [Compound AH] | – | – | 1890 nM | 90 nM |
| CN(C)CCNC(=O)c1ccc(-c2nc3ccc(-c4nc5ccc(C(=N)N)cc5[nH]4)cc3[nH]2)cc1 [Compound AK, 4-(6-carbamimidoyl-1H,3′H-[2,5′-bibenzo[d]imidazol]-2′-yl)-N-(2-(dimethylamino)ethyl)benzamide] | 28800 nM | 80 nM | – | – |
| N=C(N)c1ccc(OCc2ccc(-c3ccc(C(=N)N)cc3)cc2)cc1 [Compound AU] | 2440 nM | 360 nM | – | – |

Other lines, results leading:

| IC50 [1, 3] | IC50 ([2]; trophozoites, n = 2) | IC50 [1, 4] | IC50 [2] | Compound |
| --- | --- | --- | --- | --- |
| 730 nM | 60 nM | – | – | CC(C)NC(=N)c1ccc2nc(-c3ccc(Oc4ccc(-c5nc6ccc(C(=N)NC(C)C)cc6[nH]5)c(Cl)c4)c(C#N)c3)[nH]c2c1 [AA, 2-(2-Chloro-4-(2-cyano-4-(6-(N-isopropylcarbamimidoyl)-1H-benzo[d]imidazol-2-yl)phenoxy)phenyl)-N-isopropyl-1H-benzo[d]imidazole-6-carboximidamide] |
| 1090 nM | 380 nM | – | – | CC(C)NC(=N)c1ccc2nc(-c3ccc(Oc4ccc(-c5nc6ccc(C(=N)NC(C)C)cc6[nH]5)cc4I)cc3)[nH]c2c1 [AE, 2-(3-Iodo-4-(4-(6-(N-isopropylcarbamimidoyl)-1H-benzo[d]imidazol-2-yl)phenoxy)phenyl)-N-isopropyl-1H-benzo[d]imidazole-6-carboximidamide] |
| 1930 nM | 130 nM | – | – | COc1ccc(-c2nc3ccc(-c4nc5ccc(C6=NCCCCN6)cc5[nH]4)cc3[nH]2)cc1O [AM, 2-methoxy-5-(6-(4,5,6,7-tetrahydro-1H-1,3-diazepin-2-yl)-1H,3′H-[2,5′-bibenzo[d]imidazol]-2′-yl)phenol] |
| 480 nM | 230 nM | – | – | COc1ccc(-c2nc3ccc(-c4nc5ccc(C(=N)C6=NCCCN6)cc5[nH]4)cc3[nH]2)cc1O [AN, 5-(6-(imino(1,4,5,6-tetrahydropyrimidin-2-yl)methyl)-1H,3′H-[2,5′-bibenzo[d]imidazol]-2′-yl)-2-methoxyphenol] |
| 1700 nM | 50 nM | – | – | CC(C)NC(=N)c1ccc2nc(-c3ccc(N(C)c4ccc(-c5nc6ccc(C(=N)NC(C)C)cc6[nH]5)cc4)cc3)[nH]c2c1 [BA] |
| 2990 nM | 100 nM | – | – | N=C(NC1CCCC1)c1ccc2nc(-c3ccc(Oc4ccc(-c5nc6ccc(C(=N)NC7CCCC7)cc6[nH]5)cc4)cc3)[nH]c2c1 [BB] |
| 4910 nM | 380 nM | – | – | N=C(c1ccc2nc(-c3ccc(Oc4ccc(-c5nc6ccc(C(=N)N7CCOCC7)cc6[nH]5)cc4)cc3)[nH]c2c1)N1CCOCC1 [BE] |
| 3870 nM | 410 nM | – | – | CC1CCN(C(=N)c2ccc3nc(-c4ccc(Oc5ccc(-c6nc7ccc(C(=N)N8CCC(C)CC8)cc7[nH]6)cc5)cc4)[nH]c3c2)CC1 [BF] |
| 750 nM | 130 nM | – | – | CC(C)NC(=N)c1ccc2nc(-c3ccc(Oc4ccc(-c5nc6ccc(C(=N)NC(C)C)cc6[nH]5)c(F)c4)c(Br)c3)[nH]c2c1 [Compound AF, 2-(3-Bromo-4-(3-fluoro-4-(6-(N-isopropylcarbamimidoyl)-1H-benzo[d]imidazol-2-yl)phenoxy)phenyl)-N-isopropyl-1H-benzo[d]imidazole-6-carboximidamide] |
| 310 nM | 50 nM | – | – | CC(C)NC(=N)c1ccc2nc(-c3ccc(Oc4ccc(-c5nc6ccc(C(=N)NC(C)C)cc6[nH]5)c(Cl)c4)cc3)[nH]c2c1 [Compound AG] |
| – | – | 460 nM | 50 nM | CC(C)NC(=N)c1ccc2nc(-c3ccc(Oc4ccc(-c5nc6ccc(C(=N)NC(C)C)cc6[nH]5)cc4Cl)cc3)[nH]c2c1 [Compound AJ] |
| 2010 nM | 660 nM | – | – | COc1ccc(-c2nc3ccc(-c4nc5ccc(C6=NCC(C)(C)CN6)cc5[nH]4)cc3[nH]2)cc1O [Compound AR, 5-(6-(5,5-dimethyl-1,4,5,6-tetrahydropyrimidin-2-yl)-1H,3′H-[2,5′-bibenzo[d]imidazol]-2′-yl)-2-methoxyphenol] |
| 2400 nM | 280 nM | – | – | COc1ccc(-c2nc3ccc(-c4nc5ccc(C(=N)NC6CCC6)cc5[nH]4)cc3[nH]2)cc1O [Compound AS] |
| 1250 nM | 400 nM | – | – | N=C(NC1CCC1)c1ccc2nc(-c3ccc4nc(-c5cccc(O)c5)[nH]c4c3)[nH]c2c1 [Compound AT] |
| 370 nM | 680 nM | – | – | N=C(N)c1ccc(-c2ccc(C(=O)Nc3cccc(C(=N)N)c3)cc2)cc1 [Compound AV] |
| – | – | 13700 nM | 350 nM | N=C(N)c1ccc(-c2ccc(-c3cc4cc(C(=N)N)ccc4[nH]3)cc2)cc1 [Compound AW] |
| – | – | 6050 nM | 350 nM | N=C(N)c1ccc(-c2ccc(-c3nc4ccc(C(=N)N)cc4[nH]3)cc2)cc1 [Compound AX] |
| 5990 nM | 40 nM | – | – | CC(C)NC(=N)c1ccc2nc(-c3ccc(Nc4ccc(-c5nc6ccc(C(=N)NC(C)C)cc6[nH]5)cc4)cc3)[nH]c2c1 [Compound AY] |
| 550 nM | 40 nM | – | – | CC(C)NC(=N)c1ccc2nc(-c3ccc(Oc4ccc(-c5nc6ccc(C(=N)NC(C)C)cc6[nH]5)cc4)cc3)[nH]c2c1 [Compound AZ] |
| 17600 nM | 500 nM | – | – | N=C(c1ccc2nc(-c3ccc(Oc4ccc(-c5nc6ccc(C(=N)N7CCSCC7)cc6[nH]5)cc4)cc3)[nH]c2c1)N1CCSCC1 [Compound BH] |
| 1440 nM | 150 nM | – | – | COc1cc(-c2nc3ccc(C(=N)NC(C)C)cc3[nH]2)ccc1Oc1ccc(-c2nc3ccc(C(=N)NC(C)C)cc3[nH]2)cc1C#N [Compound U, 2-(3-Cyano-4-(4-(6-(N-isopropylcarbamimidoyl)-1H-benzo[d]imidazol-2-yl)-2-methoxyphenoxy)phenyl)-N-isopropyl-1H-benzo[d]imidazole-6-carboximidamide] |
